# Reference: the supplement of paper PMC10307832
# Compound: CC1=C(N=C(N=C1N)[C@H](CC(=O)N)NC[C@@H](C(=O)N)N)C(=O)N[C@@H]([C@H](C2=CN=CN2)OC3C(C(C(C(O3)CO)O)O)OC4C(C(C(C(O4)CO)O)OC(=O)N)O)C(=O)N[C@H](C)[C@H]([C@H](C)C(=O)N[C@@H]([C@@H](C)O)C(=O)NCCC5=NC(=CS5)C6=NC(=CS6)C(=O)NCCC[S+](C)C)O [Bleomycin]
# Test: relative viability (nuclei count vs DMSO), 5 days (fraction); higher = more cells survive
# Conditions: 0.01 µM; main component drawn
# In short: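 Lung cancer cell lines in 1536-well plates were kept overnight at 37 °C, then pinned with five library-drug doses (not always all listed) spaced by √10 on vehicle-anchored plates. After 5 days without medium change, cells were fixed, permeabilised and Hoechst-stained in one step, imaged at 4×, and nuclei were counted with MetaXpress. Viability is treated-well nuclei divided by vehicle-well nuclei, taken as the median over plates. Plates passed only with control CV below 25% and at least one doubling.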
row,Cell Line,relative viability
1,NCI-H1734,0.811
2,NCI-H520,0.901
3,NCI-H2405,0.884
4,SW 1573,0.743
5,NCI-H1395,0.753
6,201T,0.909
7,NCI-H1915,0.739
8,HCC-827,0.983
9,LXF-289,0.94
10,NCI-H2347,0.915
11,NCI-H1299,0.937
12,NCI-H650,0.743
13,CAL-12T,0.755
14,NCI-H1651,0.865
15,EPLC-272H,0.811
16,NCI-H23,0.458
17,NCI-H1792,0.755
18,NCI-H1355,0.935
19,NCI-H322M,0.861
20,NCI-H1437,0.879
21,NCI-H1755,0.94
22,NCI-H2023,0.698
23,HCC-15,0.937
24,NCI-H1793,0.817
25,PC-3 [JPC-3],1.01
26,EKVX,0.928
27,LC-2-ad,0.756
28,NCI-H1563,0.843

# Same assay, conditions: 0.03162 µM; main component drawn
row,Cell Line,relative viability
1,NCI-H1734,0.743
2,NCI-H520,0.92
3,NCI-H2405,0.969
4,SW 1573,0.705
5,NCI-H1395,0.833
6,201T,0.95
7,NCI-H1915,0.74
8,HCC-827,1.08
9,LXF-289,0.972
10,NCI-H2347,1.03
11,NCI-H1299,1.03
12,NCI-H650,1.11
13,CAL-12T,0.824
14,NCI-H1651,0.825
15,EPLC-272H,0.882
16,NCI-H23,0.439
17,NCI-H1792,1.03
18,NCI-H1355,1.02
19,NCI-H322M,1.02
20,NCI-H1437,0.985
21,NCI-H1755,1
22,NCI-H2023,0.68
23,HCC-15,0.873
24,NCI-H1793,0.772
25,PC-3 [JPC-3],1.01
26,EKVX,0.898
27,LC-2-ad,0.726
28,NCI-H1563,0.836

# Same assay, conditions: 0.1 µM; main component drawn
row,Cell Line,relative viability
1,NCI-H1734,0.717
2,NCI-H520,0.816
3,NCI-H2405,0.918
4,SW 1573,0.677
5,NCI-H1395,0.603
6,201T,0.922
7,NCI-H1915,0.489
8,HCC-827,0.9
9,LXF-289,0.912
10,NCI-H2347,0.918
11,NCI-H1299,0.936
12,NCI-H650,0.768
13,CAL-12T,0.545
14,NCI-H1651,0.711
15,EPLC-272H,0.434
16,NCI-H23,0.304
17,NCI-H1792,0.733
18,NCI-H1355,0.979
19,NCI-H322M,0.928
20,NCI-H1437,0.886
21,NCI-H1755,0.96
22,NCI-H2023,0.517
23,HCC-15,0.879
24,NCI-H1793,0.754
25,PC-3 [JPC-3],0.939
26,EKVX,0.797
27,LC-2-ad,0.549
28,NCI-H1563,0.783

# Same assay, conditions: 0.3162 µM; main component drawn
row,Cell Line,relative viability
1,NCI-H1734,0.411
2,NCI-H520,0.747
3,NCI-H2405,0.569
4,SW 1573,0.396
5,NCI-H1395,0.476
6,201T,0.756
7,NCI-H1915,0.287
8,HCC-827,0.577
9,LXF-289,0.539
10,NCI-H2347,0.461
11,NCI-H1299,0.601
12,NCI-H650,0.492
13,CAL-12T,0.273
14,NCI-H1651,0.456
15,EPLC-272H,0.132
16,NCI-H23,0.218
17,NCI-H1792,0.387
18,NCI-H1355,0.482
19,NCI-H322M,0.568
20,NCI-H1437,0.654
21,NCI-H1755,0.813
22,NCI-H2023,0.21
23,HCC-15,0.424
24,NCI-H1793,0.293
25,PC-3 [JPC-3],0.73
26,EKVX,0.374
27,LC-2-ad,0.262
28,NCI-H1563,0.625

# Same assay, conditions: 1 µM; main component drawn
row,Cell Line,relative viability
1,NCI-H1734,0.287
2,NCI-H520,0.602
3,NCI-H2405,0.394
4,SW 1573,0.286
5,NCI-H1395,0.398
6,201T,0.634
7,NCI-H1915,0.165
8,HCC-827,0.277
9,LXF-289,0.231
10,NCI-H2347,0.558
11,NCI-H1299,0.287
12,NCI-H650,0.242
13,CAL-12T,0.202
14,NCI-H1651,0.254
15,EPLC-272H,0.151
16,NCI-H23,0.161
17,NCI-H1792,0.421
18,NCI-H1355,0.297
19,NCI-H322M,0.54
20,NCI-H1437,0.567
21,NCI-H1755,0.673
22,NCI-H2023,0.142
23,HCC-15,0.382
24,NCI-H1793,0.226
25,PC-3 [JPC-3],0.535
26,EKVX,0.321
27,LC-2-ad,0.192
